Results on 10 compounds are retold here after PubChem BioAssay (NCI).

Among the test systems are A549 NSCLC; CAKI-1 renal; COLO 205 colon; HCT-15 colon; M14 melanoma; MALME-3M melanoma; MDA-N; NCI-H522 lung; OVCAR-3 ovarian; OVCAR-5 ovarian; RPMI-8226 leukemia; SN12C renal.
Common to all, as to assay: NCI tumour cell line growth inhibition, 48 h

Where “and” joins values, the source holds several entries; their conditions need not be identical. Identical values can stand only once.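 The compound was tested at five concentrations on cells cultured in 96-well plates, with a 48-hour exposure period. At the GI50, growth is halved. TGI: concentration producing complete growth inhibition.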

In the case of `CCOC(=O)c1cc(NC(=O)c2ccccc2)c(=O)n2c(cc3c(Cl)cccc32)c1O`, the TGI with A549 NSCLC, with CAKI-1 renal, in the assay on COLO 205 colon, with HCT-15 colon, in the assay on M14 melanoma and with MALME-3M melanoma was > 100 µM in each case. Moreover, the TGI with MDA-N, with NCI-H522 lung, in the assay with OVCAR-3 ovarian, with OVCAR-5 ovarian, in the assay with RPMI-8226 leukemia and in the assay with SN12C renal was > 100 µM throughout.

`COc1ccc(N=C/C=C/C(=C/COC(C)=O)OC(C)=O)cc1`: the TGI with A549 NSCLC is > 100 µM; in the assay with CAKI-1 renal, 63.8 µM; in the assay with COLO 205 colon it was 73.5 µM; in the assay with HCT-15 colon, > 100 µM; in the assay on M14 melanoma, > 100 µM; in the assay with MALME-3M melanoma, 69.5 µM. The TGI is 43.8 µM in the assay with MDA-N; 30.4 µM in the assay with NCI-H522 lung; > 100 µM in the assay on OVCAR-3 ovarian; > 100 µM with OVCAR-5 ovarian; > 100 µM in the assay on RPMI-8226 leukemia; 74.9 µM in the assay on SN12C renal.

As to `COc1cc(O)c2c(=O)cc(C3(OC(C)=O)C=CC(OC4OC(CO)C(O)C(O)C4O)C=C3)oc2c1` (centres undefined), the TGI with A549 NSCLC, with CAKI-1 renal, with COLO 205 colon, in the assay with HCT-15 colon, with M14 melanoma and in the assay with MALME-3M melanoma was > 100 µM each time. Moreover, the TGI in the assay with MDA-N, with NCI-H522 lung, in the assay with OVCAR-3 ovarian, in the assay with OVCAR-5 ovarian, in the assay with RPMI-8226 leukemia and with SN12C renal was > 100 µM each time.

In the case of `CC(C)Cn1cnnc1NS(=O)(=O)c1cc(C(=O)NN)c(Cl)cc1S`, the TGI with A549 NSCLC, in the assay on CAKI-1 renal, in the assay on COLO 205 colon, in the assay with HCT-15 colon, with M14 melanoma and in the assay with MALME-3M melanoma was > 10 µM in each case. Also, the TGI in the assay with MDA-N, in the assay on NCI-H522 lung, in the assay with OVCAR-3 ovarian, in the assay on OVCAR-5 ovarian, in the assay with RPMI-8226 leukemia and in the assay with SN12C renal was > 10 µM in each case.

With `COc1cc(-c2c(C(C)=O)c(-c3ccccc3)n(C3OC(COC(C)=O)C(OC(C)=O)C(OC(C)=O)C3OC(C)=O)c(=S)c2C#N)ccc1O` (centres undefined), the TGI with A549 NSCLC, in the assay on CAKI-1 renal, in the assay with COLO 205 colon, with HCT-15 colon, with M14 melanoma and in the assay on MALME-3M melanoma was > 100 µM throughout. The TGI is > 100 µM with MDA-N; 90.4 µM and > 100 µM with NCI-H522 lung; > 100 µM in the assay with OVCAR-3 ovarian; > 100 µM in the assay on OVCAR-5 ovarian; > 100 µM in the assay on RPMI-8226 leukemia; > 100 µM with SN12C renal. Besides, the GI50 in the assay on MALME-3M melanoma was 37 µM and > 100 µM; with NCI-H522 lung it was 18.6 µM and 40.2 µM; in the assay on OVCAR-3 ovarian it was 44.1 µM and > 100 µM; in the assay on RPMI-8226 leukemia, 34.5 µM.

Regarding `Cc1ccc2c(c1)C(=O)c1ccc(C)nc1C2=O`, the TGI in the assay with A549 NSCLC was > 100 µM; in the assay on CAKI-1 renal, > 100 µM; with COLO 205 colon, > 100 µM; with HCT-15 colon, 39 µM; in the assay on M14 melanoma it was > 100 µM; with MALME-3M melanoma, 52.5 µM. Moreover, the TGI in the assay with MDA-N is 31.4 µM; in the assay on NCI-H522 lung it was 82.1 µM; with OVCAR-3 ovarian, > 100 µM; with OVCAR-5 ovarian it was > 100 µM; in the assay on RPMI-8226 leukemia, > 100 µM; with SN12C renal it was 59.2 µM.

Take `Nc1nc(Cl)c(N)c(NCC2(CO)CC(O)C2)n1` (centres undefined): the TGI in the assay with A549 NSCLC, in the assay with CAKI-1 renal, in the assay on COLO 205 colon, in the assay on HCT-15 colon, in the assay with M14 melanoma and with MALME-3M melanoma was > 100 µM each time. The TGI in the assay with MDA-N, in the assay with NCI-H522 lung, with OVCAR-3 ovarian, in the assay with OVCAR-5 ovarian, in the assay with RPMI-8226 leukemia and in the assay with SN12C renal was > 100 µM throughout.

Turning to `c1cc(-c2ccc(Oc3ccc(-c4ccncc4)cc3)cc2)ccn1`, the TGI in the assay on A549 NSCLC was > 100 µM; with CAKI-1 renal, > 27.1 µM; with COLO 205 colon, 18.7 µM; with HCT-15 colon, 96.9 µM; in the assay with M14 melanoma it was > 100 µM; in the assay with MALME-3M melanoma, > 44 µM. The TGI is > 100 µM in the assay on MDA-N; > 79.4 µM in the assay on NCI-H522 lung; > 61.8 µM in the assay on OVCAR-3 ovarian; > 100 µM in the assay with OVCAR-5 ovarian; 4.96 µM in the assay on RPMI-8226 leukemia; > 100 µM in the assay on SN12C renal.

In the case of `COC(=O)c1c(OC(C)=O)ccc2c1c1c(n2Cc2ccccc2)C(=O)c2ccccc2C1=O`, the TGI in the assay on A549 NSCLC was determined as 83.9 µM; with CAKI-1 renal, 51.2 µM; in the assay on COLO 205 colon, 30.5 µM; in the assay with HCT-15 colon, 41.9 µM; in the assay on M14 melanoma, 47.5 µM; in the assay on MALME-3M melanoma it was 50.7 µM. The TGI stood at 38.3 µM in the assay with MDA-N; 46.6 µM with NCI-H522 lung; 36.3 µM with OVCAR-3 ovarian; 41.3 µM in the assay with OVCAR-5 ovarian; 36.4 µM with RPMI-8226 leukemia; 37.5 µM in the assay with SN12C renal.

As to `COC(=O)[C@@H](COC(=O)/C=C/c1ccc(OC(C)=O)c(OC(C)=O)c1)NC(=O)/C=C/c1ccc(OC(C)=O)c(OC(C)=O)c1`, the TGI was > 100 µM with A549 NSCLC; 48.1 µM in the assay on CAKI-1 renal; 35.3 µM in the assay on COLO 205 colon; 91.4 µM in the assay on HCT-15 colon; 73.8 µM in the assay on M14 melanoma; 29.2 µM with MALME-3M melanoma. Further, the TGI in the assay with MDA-N was 50.3 µM; in the assay on NCI-H522 lung it was 35.1 µM; in the assay with OVCAR-3 ovarian, 50 µM; with OVCAR-5 ovarian, > 100 µM; in the assay on RPMI-8226 leukemia, > 100 µM; with SN12C renal, 46.7 µM.
